Laboratory results as given in US20190374533A1, “COMPOUNDS AND METHODS FOR INHIBITING NHE-MEDIATED ANTIPORT IN THE TREATMENT OF DISORDERS ASSOCIATED WITH FLUID RETENTION OR SALT OVERLOAD AND GASTROINTESTINAL TRACT DISORDERS” (Ardelyx, Inc., priority 2008, published 2019).
Where two headings read alike, the source gives them in different places.

How the values were obtained:
[1] = test system: acute stress-induced visceral hypersensitivity; assay: Effect on acute stress-induced visceral hypersensitivity (colorectal distension); assay type: in vivo, rat; conditions: female Wistar rats, partial restraint stress, 10 mg/kg oral, at 45 and 60 mm Hg, p<0.05 (FIG. 6)
Protocol: Female Wistar rats weighing 220-250 g were prepared for electromyography. The animals were anaesthetized, and three pairs of nichrome wire electrodes were implanted bilaterally in the striated muscles at 3 cm laterally from the midline. The free ends of electrodes were exteriorised on the back of the neck and protected by a glass tube attached to the skin. Electromyographic recordings (EMG) were begun 5 days after surgery. The electrical activity of the abdominal striated muscles were recorded with an electromyograph machine (Mini VIII; Alvar, Paris, France) using a short time constant (0.03 sec.) to remove low-frequency signals (<3 Hz).
Partial restraint stress (PRS), a relatively mild stress, was performed as follows. Briefly, animals were lightly anaesthetized with ethyl-ether, and their […], upper forelimbs and thoracic trunk were wrapped in a confining harness of paper tape to restrict, but not prevent their body movements and placed in their home cage for 2 hours. Control sham-stress animals were anaesthetized but not wrapped. […]
Colorectal distension (CRD) was accomplished as follows: rats were placed in a plastic tunnel, where they were not allowed to move or escape daily during 3 consecutive days (3 h/day) before any CRD. […] For each parameter studied (the number of abdominal contractions for each 5-min period during rectal distension) data is expressed as mean±SEM. […]

[2] = test system: fecal water content; assay: Pharmacodynamic model: effect of test compounds on fecal water content; assay type: in vivo, rat; conditions: female Sprague Dawley rats, 3 mg/kg oral, feces collected 16 hrs; for % Fecal water: mean of 6
Protocol: Normal female Sprague Dawlev rats (Charles-River laboratories international, Hollister, Calif.), 7-8 weeks old with body weight 175-200 g were acclimated for at least 3 days before proceeding to experiments. The animals were provided food (Harlan Teklad 2018c) and water ad lib, through the experiment. Animals were randomly grouped with 6 rats per group.
The experiments were initiated by orally dosing test compounds at 3 mg/kg in volume of 10 ml/kg. Rats from control group were gavaged with the same volume of vehicle (water). After dosing, rats were placed in metabolic cages for 16 hrs (overnight). Food and water consumption were monitored. After sixteen hours, feces and urine were collected. The percent of fecal water was measured by weighing fecal samples before and after drying.
Representative data of % fecal water content are shown in Table 12 (data are expressed as means, with 6 animals per data point). The differences between control and treated groups were evaluated by one way ANOVA with Dunnett post tests. Results are significant if p<0.05.

[3] = test system: fecal water content, urinary sodium, fecal form; assay: Pharmacodynamic model: addition of a fluid absorbing polymer (1% Psyllium) to chow; assay type: in vivo, rat; conditions: rats, chow with 1% Psyllium (FIGS. 5A-5C)
Source text: Rats were monitored for fecal water content as in Example 13, with the addition of a second group that were fed chow with the addition of 1% Psyllium to their diet. In addition to fecal water and urinary sodium, fecal form was monitored on a scale of 1-5, where 1 is a normal pellet, 3 indicates soft and unformed pellets, and 5 indicates watery feces.

[4] = test system: urinary sodium levels; assay: Pharmacodynamic model: effect of test compounds on urinary sodium levels; assay type: in vivo, rat; conditions: rats, several oral dose levels, corrected for sodium intake (FIGS. 3A and 3B)
Protocol: It is anticipated that the reduction of absorption of sodium from the intestine will be reflected in reduced levels of sodium in the urine. To test this, the protocols in Example 13 were repeated, but urine was collected in addition to feces. Urine sodium levels were analyzed by ion chromatography (IC), and the amound of sodium excreted in the urine was corrected for variations in sodium intake by measuring food consumption.

[5] = Determination of compound Cmax and AUC; assay type: in vivo; conditions: rat; Sprague-Dawley rats, oral gavage, serum 0.5-4 h; actual oral dose (mg/kg) given
In short: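 Sprague-Dawley rats dosed orally by gavage at 2.5 mg/kg; serum sampled at 0.5, 1, 2 and 4 h. Acetonitrile protein precipitation, then LC/MS/MS quantitation against a standard curve.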

[6] = target: T1, rat NHE-3 (Rattus norvegicus, UniProt P26433); assay: Cell-based assay of NHE-3 activity (Pharmacological Test Example 1); conditions: OK cells expressing rat NHE-3; 0-30 uM test compound, 5 uM EIPA; read-out: rat NHE-3 Average pIC50 (converted)
T1 construct: expressed in transfected cells; host or cells: Opossum kidney (OK) cells (ATCC), electroporated
In short: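 Na+-dependent H+ exchange tracked with the pH-sensitive dye BCECF in opossum kidney cells transiently expressing rat NHE-3. Intracellular acidification by NH4Cl prepulse, then 10 min in ammonium- and Na+-free HEPES, pH 7.4, room temperature. Initial rates averaged over 3-6 replicates give pIC50.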

[7] = target: NHE-3 (Rattus norvegicus, UniProt P26433); conditions: cited from earlier work
[8] = target: NHE-1 (Rattus norvegicus, UniProt P26431); conditions: * = from rat; read-out: IC50 or Ki, NHE-1; cited from earlier work
[9] = target: T2, NHE-2 (Rattus norvegicus, UniProt P48763); conditions: * = from rat; read-out: IC50 or Ki, NHE-2; cited from earlier work
T2 sequence (P48763 1-813): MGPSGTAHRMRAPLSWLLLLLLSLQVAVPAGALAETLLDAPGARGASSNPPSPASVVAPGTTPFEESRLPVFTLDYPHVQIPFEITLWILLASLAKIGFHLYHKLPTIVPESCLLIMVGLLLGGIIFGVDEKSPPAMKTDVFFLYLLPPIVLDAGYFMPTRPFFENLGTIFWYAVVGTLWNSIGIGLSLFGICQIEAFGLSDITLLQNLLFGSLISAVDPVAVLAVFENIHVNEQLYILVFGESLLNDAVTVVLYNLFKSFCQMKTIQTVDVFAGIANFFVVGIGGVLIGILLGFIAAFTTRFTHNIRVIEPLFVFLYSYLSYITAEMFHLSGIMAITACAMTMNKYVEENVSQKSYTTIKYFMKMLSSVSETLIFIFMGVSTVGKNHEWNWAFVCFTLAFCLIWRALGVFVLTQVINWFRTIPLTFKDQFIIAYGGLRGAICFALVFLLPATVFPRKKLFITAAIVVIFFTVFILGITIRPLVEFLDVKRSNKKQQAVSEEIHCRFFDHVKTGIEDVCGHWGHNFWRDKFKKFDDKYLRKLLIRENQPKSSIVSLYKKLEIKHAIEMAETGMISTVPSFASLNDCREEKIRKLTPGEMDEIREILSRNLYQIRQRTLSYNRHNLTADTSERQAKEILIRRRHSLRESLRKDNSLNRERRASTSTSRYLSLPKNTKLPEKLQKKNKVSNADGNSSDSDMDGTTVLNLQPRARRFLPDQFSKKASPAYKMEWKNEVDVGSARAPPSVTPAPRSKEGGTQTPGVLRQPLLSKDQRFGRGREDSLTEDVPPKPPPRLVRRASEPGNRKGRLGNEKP

[10] = target: NHE-1 (Homo sapiens, UniProt P19634); assay: Inhibition of NHE-1, literature data (Table 1), species not marked; assay type: cell-based; conditions: selectivity NHE-1 over NHE-3, from Table 1
Source text: Shown below are examples of various NHE inhibiting small molecules and their selectivity across the NHE-1, -2 and -3 isoforms. (See, e.g., B. Masereel et al., An Overview of Inhibitors of Na+/H+ Exchanger, European J. of Med. Chem., 38, pp. 547-554 (2003), the entire contents of which is incorporated by reference here for all relevant and consistent purposes). […] It is thus possible to engineer NHE-3 selectivity into a chemical series optim/zed for potency against another antiporter isoform; that is, the inhibitor classes exemplified in the art may be suitably modified for activity and selectivity against NHE-3 (or alternatively NHE-2 and/or NHE-8), as well as being modified to be rendered substantially impermeable or substantially systemically non-bioavailable.

[11] = target: T3, NHE-5 (Homo sapiens, UniProt Q14940); conditions: read-out: IC50 or Ki, NHE-5; cited from earlier work
T3 sequence (Q14940 1-896): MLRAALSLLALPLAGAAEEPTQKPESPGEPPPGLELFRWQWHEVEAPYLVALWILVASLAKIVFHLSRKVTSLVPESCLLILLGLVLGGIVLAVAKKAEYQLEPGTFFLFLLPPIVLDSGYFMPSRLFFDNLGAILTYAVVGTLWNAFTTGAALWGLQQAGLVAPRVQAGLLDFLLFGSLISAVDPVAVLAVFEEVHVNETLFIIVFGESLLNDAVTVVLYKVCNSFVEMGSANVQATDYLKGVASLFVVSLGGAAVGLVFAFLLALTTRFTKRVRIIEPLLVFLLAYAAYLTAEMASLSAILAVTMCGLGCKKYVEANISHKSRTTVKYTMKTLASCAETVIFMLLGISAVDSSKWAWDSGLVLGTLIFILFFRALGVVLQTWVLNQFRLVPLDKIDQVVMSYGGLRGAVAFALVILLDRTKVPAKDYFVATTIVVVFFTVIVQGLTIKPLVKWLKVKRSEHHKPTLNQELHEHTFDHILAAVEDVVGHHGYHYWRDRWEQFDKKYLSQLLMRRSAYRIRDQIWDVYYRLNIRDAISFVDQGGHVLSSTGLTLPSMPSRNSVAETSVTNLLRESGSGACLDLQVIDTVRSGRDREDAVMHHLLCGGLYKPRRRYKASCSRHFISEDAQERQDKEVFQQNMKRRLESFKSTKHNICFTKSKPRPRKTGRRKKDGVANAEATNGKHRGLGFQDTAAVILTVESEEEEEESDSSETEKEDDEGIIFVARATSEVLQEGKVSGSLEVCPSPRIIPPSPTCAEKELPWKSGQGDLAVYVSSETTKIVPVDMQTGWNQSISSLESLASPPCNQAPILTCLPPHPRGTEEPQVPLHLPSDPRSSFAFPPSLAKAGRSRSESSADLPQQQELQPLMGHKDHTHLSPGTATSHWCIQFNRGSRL

[12] = * = from rat, read-out: IC50 or Ki, NHE-3

Sequence of NHE-3 (P26433 29-831): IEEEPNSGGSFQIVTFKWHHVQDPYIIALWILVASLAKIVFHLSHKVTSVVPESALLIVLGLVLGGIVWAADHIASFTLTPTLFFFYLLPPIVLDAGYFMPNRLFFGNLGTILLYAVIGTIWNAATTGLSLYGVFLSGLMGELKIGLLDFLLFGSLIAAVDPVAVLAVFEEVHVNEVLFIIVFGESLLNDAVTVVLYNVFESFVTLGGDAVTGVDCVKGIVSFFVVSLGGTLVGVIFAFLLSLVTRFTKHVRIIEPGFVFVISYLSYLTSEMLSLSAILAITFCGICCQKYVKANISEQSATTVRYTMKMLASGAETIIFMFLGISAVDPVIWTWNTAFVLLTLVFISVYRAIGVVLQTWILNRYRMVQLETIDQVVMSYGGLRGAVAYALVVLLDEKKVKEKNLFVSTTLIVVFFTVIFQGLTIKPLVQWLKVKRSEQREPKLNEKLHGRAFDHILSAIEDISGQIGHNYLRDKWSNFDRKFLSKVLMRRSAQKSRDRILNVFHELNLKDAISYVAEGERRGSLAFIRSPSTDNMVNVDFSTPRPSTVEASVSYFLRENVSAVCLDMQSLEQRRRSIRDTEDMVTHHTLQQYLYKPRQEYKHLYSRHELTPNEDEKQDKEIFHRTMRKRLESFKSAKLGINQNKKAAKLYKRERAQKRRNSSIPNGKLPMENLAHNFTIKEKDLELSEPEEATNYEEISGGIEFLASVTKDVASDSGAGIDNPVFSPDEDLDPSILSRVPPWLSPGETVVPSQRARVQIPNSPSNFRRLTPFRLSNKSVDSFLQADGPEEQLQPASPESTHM
Sequence of NHE-1 (Homo sapiens, UniProt P19634) (P19634 whole entry, species assumed, canonical isoform): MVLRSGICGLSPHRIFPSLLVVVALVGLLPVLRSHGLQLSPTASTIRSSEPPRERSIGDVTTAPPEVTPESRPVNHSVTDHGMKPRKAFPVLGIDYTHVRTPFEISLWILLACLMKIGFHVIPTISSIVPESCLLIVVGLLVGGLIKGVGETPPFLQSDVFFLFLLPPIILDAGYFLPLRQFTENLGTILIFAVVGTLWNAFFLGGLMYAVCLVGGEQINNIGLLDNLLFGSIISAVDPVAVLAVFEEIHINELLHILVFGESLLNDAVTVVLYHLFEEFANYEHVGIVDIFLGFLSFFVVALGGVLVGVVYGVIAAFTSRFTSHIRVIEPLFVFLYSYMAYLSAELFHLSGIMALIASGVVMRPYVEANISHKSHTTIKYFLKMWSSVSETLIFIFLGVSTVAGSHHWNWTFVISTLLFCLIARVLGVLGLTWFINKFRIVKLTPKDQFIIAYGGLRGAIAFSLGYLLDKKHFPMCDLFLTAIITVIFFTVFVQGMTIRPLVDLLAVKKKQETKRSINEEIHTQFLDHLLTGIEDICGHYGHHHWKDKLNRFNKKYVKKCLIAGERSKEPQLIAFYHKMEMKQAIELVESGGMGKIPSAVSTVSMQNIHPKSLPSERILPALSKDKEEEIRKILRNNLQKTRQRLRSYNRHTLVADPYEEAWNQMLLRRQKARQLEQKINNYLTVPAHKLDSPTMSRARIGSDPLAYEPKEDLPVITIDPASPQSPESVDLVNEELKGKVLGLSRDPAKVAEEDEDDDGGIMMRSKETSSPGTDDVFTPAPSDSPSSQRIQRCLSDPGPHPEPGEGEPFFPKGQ
Sequence of NHE-1 (Rattus norvegicus, UniProt P26431) (P26431 whole entry): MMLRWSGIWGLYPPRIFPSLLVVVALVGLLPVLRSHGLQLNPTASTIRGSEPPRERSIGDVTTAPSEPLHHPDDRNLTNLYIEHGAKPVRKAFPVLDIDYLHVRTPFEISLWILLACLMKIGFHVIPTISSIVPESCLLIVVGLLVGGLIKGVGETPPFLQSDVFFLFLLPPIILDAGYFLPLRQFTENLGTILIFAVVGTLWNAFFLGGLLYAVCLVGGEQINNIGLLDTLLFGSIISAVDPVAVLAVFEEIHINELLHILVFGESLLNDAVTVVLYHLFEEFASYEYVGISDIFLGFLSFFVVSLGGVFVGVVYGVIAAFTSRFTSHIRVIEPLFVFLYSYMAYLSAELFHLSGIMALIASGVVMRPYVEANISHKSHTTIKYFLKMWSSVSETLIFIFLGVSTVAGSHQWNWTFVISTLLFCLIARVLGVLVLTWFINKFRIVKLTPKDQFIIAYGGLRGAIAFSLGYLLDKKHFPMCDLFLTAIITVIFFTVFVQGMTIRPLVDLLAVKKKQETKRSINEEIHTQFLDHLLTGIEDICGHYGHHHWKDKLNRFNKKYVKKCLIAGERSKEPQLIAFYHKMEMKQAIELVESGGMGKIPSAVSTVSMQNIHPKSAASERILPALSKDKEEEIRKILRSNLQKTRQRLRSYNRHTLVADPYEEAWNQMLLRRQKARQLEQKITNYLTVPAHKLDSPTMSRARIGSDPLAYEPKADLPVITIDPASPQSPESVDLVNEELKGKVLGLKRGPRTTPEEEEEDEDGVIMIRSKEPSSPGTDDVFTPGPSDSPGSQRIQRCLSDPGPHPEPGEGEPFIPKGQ
T1 sequence (P26433 29-831): as the sequence (P26433 29-831) above

CN1Cc2c(Cl)cc(Cl)cc2C(c2cccc(S(=O)(=O)NCCOCCOCCOCCNC(=O)C(O)C(O)C(=O)NCCOCCOCCOCCNS(=O)(=O)c3cccc(C4CN(C)Cc5c(Cl)cc(Cl)cc54)c3)c2)C1 (single isomer, unassigned) [Example 224, N1,N4-bis(2-(2-(2-(2-(3-((S or R)-6,8-dichloro-2-methyl-1,2,3,4-tetrahydroisoquinolin-4-yl)phenylsulfonamido)ethoxy)ethoxy)ethoxy)ethyl)-2,3-dihydroxysuccinamide]
visceral hypersensitivity to distension (abdominal contractions) [1]: reduces visceral hypersensitivity to distension
% Fecal water (% of control) [2]: 125% of control
% Fecal water [2]: 65%
ability to increase fecal water content or decrease urinary sodium with Psyllium in the diet [3]: without impacting the ability

CN1Cc2c(Cl)cc(Cl)cc2[C@H](c2cccc(S(=O)(=O)NCCOCCOCCOCCNC(=O)NCCCCNC(=O)NCCOCCOCCOCCNS(=O)(=O)c3cccc([C@@H]4CN(C)Cc5c(Cl)cc(Cl)cc54)c3)c2)C1 (single isomer, unassigned) [Example 244, (S or R)—N,N′-(13,20-dioxo-3,6,9,24,27,30-hexaoxa-12,14,19,21-tetraazadotriacontane-1,32-diyl)bis(3-((S or R)-6,8-dichloro-2-methyl-1,2,3,4-tetrahydroisoquinolin-4-yl)benzenesulfonamide)]
amount of sodium excreted in the urine [4]: diminishes significantly and dose dependently
% Fecal water (% of control) [2]: 118% of control
% Fecal water [2]: 61%
AUC [5]: < 15 ng·h/mL
Cmax [5]: < 7 ng/mL
IC50 [6]: < 100 nM

N=C(N)NC(=O)c1nc(Cl)c(N)nc1N [Amiloride, amiloride]
IC50 [7, 12]: > 100000 nM
IC50 ([7]; as restated in the text on Table 1, read-out: NHE-3 IC50): > 100000 nM
IC50 [8]: 1000 to 1600 nM

CCN(c1nc(N)c(C(=O)NC(=N)N)nc1Cl)C(C)C [EIPA, ethyl isopropyl amiloride]
IC50 [9]: 80 nM

C/C(=C\c1cccc(/C=C(\C)C(=O)NC(=N)N)c1)C(=O)N=C(N)N [Example S-2120, S-2120]
fold more active against NHE-1 than NHE-3 [10]: over 500 fold

C/C(=C\c1cc(C)ccc1/C=C(\C)C(=O)NC(=N)N)C(=O)N=C(N)N [Example S-3226, S-3226]
fold more active against NHE-1 than NHE-3 [10]: reversed

N=C(N)NC(=O)c1nc(Cl)c(N2CCCCCC2)nc1N [HMA]
IC50 [11]: 370 nM
IC50 [7, 12]: 2400 nM
IC50 [8]: 13 nM
